How the values were obtained:
Format in all cases: in vivo
[1] = tested on: ducksalad (Heteranthera limosa); experiment: Test B flooded paddy test, ducksalad; conditions: Flood, 250 g ai/ha, applied to paddy water, 2-leaf stage, visual evaluation after 13 to 15 d
Procedure, shortened: (§1)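 Rating: 0 = no effect, 100 = complete control, visual, relative to untreated plants. Conditions: 2-leaf stage, 3 cm flood kept constant, compound put directly into water, 13–15 d greenhouse.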

[2] = tested on: pigweed (Amaranthus retroflexus); experiment: Test A preemergence, pigweed; conditions: 0 to 100 scale, 0 is no effect, 100 is complete control
Procedure, shortened: (§2)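 Greenhouse evaluation: treated and untreated pots were held about 10 d, then injury was rated visually from 0 (no effect) to 100 (complete control). Application was preemergence to soil or postemergence to seedlings 2–10 cm tall, using a non-phytotoxic solvent formulation with surfactant.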

[3] = tested on: ragweed (common ragweed, Ambrosia elatior); experiment: Test A preemergence, ragweed; conditions: 0 to 100 scale, 0 is no effect, 100 is complete control
Procedure, shortened: as §2

[4] = tested on: blackgrass (Alopecurus myosuroides); experiment: Test A postemergence, blackgrass; conditions: 0 to 100 scale; for Plant response rating, Blackgrass: 0 no effect, 100 complete control
Procedure, shortened: as §2

[5] = tested on: foxtail, giant (Setaria faberii); experiment: Test A postemergence, giant foxtail; conditions: 0 to 100 scale; for Plant response rating, Foxtail, Giant: 0 no effect, 100 complete control
Procedure, shortened: as §2

kochia (Kochia scoparia) [6] = experiment: Test A postemergence, kochia; conditions: 0 to 100 scale; for Plant response rating, Kochia: 0 no effect, 100 complete control
Procedure, shortened: as §2

[7] = tested on: barnyardgrass (Echinochloa crus-galli); experiment: Test A preemergence, barnyardgrass; conditions: 0 to 100 scale, 0 is no effect, 100 is complete control
Procedure, shortened: as §2

[8] = tested on: barnyardgrass (Echinochloa crus-galli); experiment: Test A postemergence, barnyardgrass; conditions: 0 to 100 scale; for Plant response rating, Barnyardgrass: 0 no effect, 100 complete control
Procedure, shortened: as §2

[9] = tested on: ryegrass, Italian (Lolium multiflorum); experiment: Test A postemergence, Italian ryegrass; conditions: 0 to 100 scale; for Plant response rating, Ryegrass, Italian: 0 no effect, 100 complete control
Procedure, shortened: as §2

[10] = tested on: foxtail, giant (Setaria faberii); experiment: Test A preemergence, giant foxtail; conditions: 0 to 100 scale, 0 is no effect, 100 is complete control
Procedure, shortened: as §2

rice (Oryza sativa) = experiment: Test B flooded paddy test, rice; conditions: Flood, 250 g ai/ha, applied to paddy water, 2-leaf stage, visual evaluation after 13 to 15 d
Procedure, shortened: as §1

corn (Zea mays) = experiment: Test A postemergence, corn; conditions: 0 to 100 scale; for Plant response rating, Corn: 0 no effect, 100 complete control
Procedure, shortened: as §2

[11] = tested on: galium (catchweed bedstraw, Galium aparine); experiment: Test A postemergence, galium; conditions: 0 to 100 scale; for Plant response rating, Galium: 0 no effect, 100 complete control
Procedure, shortened: as §2

[12] = tested on: ragweed (common ragweed, Ambrosia elatior); experiment: Test A postemergence, ragweed; conditions: 0 to 100 scale; for Plant response rating, Ragweed: 0 no effect, 100 complete control
Procedure, shortened: as §2

[13] = tested on: wheat (Triticum aestivum); experiment: Test A postemergence, wheat; conditions: 0 to 100 scale; for Plant response rating, Wheat: 0 no effect, 100 complete control
Procedure, shortened: as §2

[14] = tested on: sedge, umbrella (small-flower umbrella sedge, Cyperus difformis); experiment: Test B flooded paddy test, umbrella sedge; conditions: Flood, 250 g ai/ha, applied to paddy water, 2-leaf stage, visual evaluation after 13 to 15 d
Procedure, shortened: as §1

[15] = tested on: barnyardgrass (Echinochloa crus-galli); experiment: Test B flooded paddy test, barnyardgrass; conditions: Flood, 250 g ai/ha, applied to paddy water, 2-leaf stage, visual evaluation after 13 to 15 d
Procedure, shortened: as §1

kochia (Kochia scoparia) [16] = experiment: Test A preemergence, kochia; conditions: 0 to 100 scale, 0 is no effect, 100 is complete control
Procedure, shortened: as §2

[17] = tested on: ryegrass, Italian (Lolium multiflorum); experiment: Test A preemergence, Italian ryegrass; conditions: 0 to 100 scale, 0 is no effect, 100 is complete control
Procedure, shortened: as §2

[18] = tested on: pigweed (Amaranthus retroflexus); experiment: Test A postemergence, pigweed; conditions: 0 to 100 scale; for Plant response rating, Pigweed: 0 no effect, 100 complete control
Procedure, shortened: as §2

[19] = 500 g ai/ha, 0 is no effect, 100 is complete control

| SMILES | Plant response rating, Ducksalad (0 to 100 scale, 0 is no effect, 100 is complete control) [1] | Pigweed plant response rating ([2]; 125 g ai/ha) | Pigweed plant response rating ([2]; 500 g ai/ha) | Ragweed plant response rating ([3]; 125 g ai/ha) | Ragweed plant response rating ([3]; 500 g ai/ha) | Plant response rating, Blackgrass ([4]; 125 g ai/ha) | Plant response rating, Foxtail, Giant ([5]; 125 g ai/ha) | Plant response rating, Kochia (kochia (Kochia scoparia) [6]; 125 g ai/ha) | Barnyardgrass plant response rating ([7]; 125 g ai/ha) | Barnyardgrass plant response rating ([7]; 500 g ai/ha) | Plant response rating, Barnyardgrass ([8]; 125 g ai/ha) | Plant response rating, Ryegrass, Italian ([9]; 125 g ai/ha) | Foxtail, Giant plant response rating ([10]; 125 g ai/ha) | Foxtail, Giant plant response rating ([10]; 500 g ai/ha) | Plant response rating, Rice (0 to 100 scale, 0 is no effect, 100 is complete control) (rice (Oryza sativa)) | Plant response rating, Corn (corn (Zea mays); 125 g ai/ha) | Plant response rating, Galium ([11]; 125 g ai/ha) | Plant response rating, Ragweed ([12]; 125 g ai/ha) | Plant response rating, Wheat ([13]; 125 g ai/ha) | Plant response rating, Sedge, Umbrella (0 to 100 scale, 0 is no effect, 100 is complete control) [14] | other results |
| --- | --- | --- | --- | --- | --- | --- | --- | --- | --- | --- | --- | --- | --- | --- | --- | --- | --- | --- | --- | --- | --- |
| C[C@H](Nc1ncc(C(F)(F)F)c(N)n1)c1csc2ccccc12 [Compound 42] | 0 | 0 | 0 | 0 | 0 | 20 | 0 | 0 | 0 | 0 | 30 | 0 | 0 | 0 | 0 | 0 | 20 | 30 | 0 | 0 | Blackgrass plant response rating [4, 19]: 0; Foxtail, Giant plant response rating [5, 19]: 0; Kochia plant response rating (kochia (Kochia scoparia) [6]; [19]): 0; Barnyardgrass plant response rating [8, 19]: 0; Ryegrass, Italian plant response rating [9, 19]: 0; Corn plant response rating (corn (Zea mays); [19]): 0; Galium plant response rating [11, 19]: 20; Ragweed plant response rating [12, 19]: 0; Wheat plant response rating [13, 19]: 0; Plant response rating, Barnyardgrass (0 to 100 scale, 0 is no effect, 100 is complete control) [15]: 0; Kochia plant response rating (kochia (Kochia scoparia) [16]; 125 g ai/ha): 0; Kochia plant response rating (kochia (Kochia scoparia) [16]; 500 g ai/ha): 0; Ryegrass, Italian plant response rating ([17]; 125 g ai/ha): 0; Ryegrass, Italian plant response rating ([17]; 500 g ai/ha): 0; Plant response rating, Pigweed ([18]; 125 g ai/ha): 0; Pigweed plant response rating [18, 19]: 0 |
| Nc1nc(N[C@@H](c2cc3ccccc3s2)C2CC2)ncc1C(F)(F)F [Compound 84] | 65 | 100 | 100 | 100 | 100 | 0 | 50 | 80 | 90 | 90 | 70 | 0 | 90 | 100 | 20 | 0 | 60 | 40 | 0 | 90 | Plant response rating, Blackgrass ([4]; 500 g ai/ha): 0; Plant response rating, Foxtail, Giant ([5]; 500 g ai/ha): 90; Plant response rating, Kochia (kochia (Kochia scoparia) [6]; 500 g ai/ha): 90; Plant response rating, Barnyardgrass ([8]; 500 g ai/ha): 100; Plant response rating, Ryegrass, Italian ([9]; 500 g ai/ha): 70; Plant response rating, Corn (corn (Zea mays); 500 g ai/ha): 0; Plant response rating, Galium ([11]; 500 g ai/ha): 80; Plant response rating, Ragweed ([12]; 500 g ai/ha): 90; Plant response rating, Wheat ([13]; 500 g ai/ha): 0; Plant response rating, Barnyardgrass (0 to 100 scale, 0 is no effect, 100 is complete control) [15]: 85; Kochia plant response rating (kochia (Kochia scoparia) [16]; 125 g ai/ha): 90; Kochia plant response rating (kochia (Kochia scoparia) [16]; 500 g ai/ha): 90; Ryegrass, Italian plant response rating ([17]; 125 g ai/ha): 70; Ryegrass, Italian plant response rating ([17]; 500 g ai/ha): 90; Plant response rating, Pigweed ([18]; 125 g ai/ha): 100; Plant response rating, Pigweed ([18]; 500 g ai/ha): 100 |

From patent publication US20220119354A1, “DIAMINO-SUBSTITUTED PYRIDINES AND PYRIMIDINES AS HERBICIDES” (FMC Corporation, priority 2019, published 2022)
